ChEMBL document CHEMBL5046293 (J Med Chem, 2022)

Tests used:
[1] = Stability of compound in 0.01 M PBS buffer at 50 uM measured after 4 hrs by LC-MS analysis (reference value: 99.2 %); format: physicochemical; conditions: read-out: Stability
[2] = Stability of compound in 0.01 M PBS buffer at 50 uM measured after 52 hrs by LC-MS analysis (reference value: 99.2 %); format: physicochemical; conditions: read-out: Stability
[3] = Cytotoxicity against human BLEC monolayers at 50 uM incubated for 1 hr; format: toxicity, cell-based; conditions: brain-like endothelial cells
[4] = Stability of compound in 0.01 M PBS buffer at 50 uM measured after 4 hrs by LC-MS analysis (reference value: 98.7 %); format: physicochemical; conditions: read-out: Stability
[5] = Stability of compound in 0.01 M PBS buffer at 50 uM measured after 52 hrs by LC-MS analysis (reference value: 98.7 %); format: physicochemical; conditions: read-out: Stability

Row | SMILES | Activity [3] | also measured
1 | OC[C@H]1O[C@@H](OCCCCc2cn(CCCc3ccc(O)c(/C=N/O)n3)nn2)[C@H](O)[C@@H](O)[C@@H]1O | Non-Toxic | remaining at 4 h, 50 µM [1]: 96.7%; remaining at 52 h, 50 µM [2]: 90.9%
2 | C#CCCCCO[C@@H]1O[C@H](CO)[C@@H](O)[C@H](O)[C@H]1O | Non-Toxic | –
3 | OC[C@H]1O[C@@H](OCCCCCc2ccc(O)c(/C=N/O)n2)[C@H](O)[C@@H]1O | Non-Toxic | –
4 | C#CCCCCO[C@@H]1O[C@H](CO)[C@@H](O)[C@H]1O | Non-Toxic | –
5 | OC[C@H]1O[C@H](OCCCCc2cn(CCCCc3ccc(O)c(/C=N/O)n3)nn2)[C@H](O)[C@@H](O)[C@@H]1O | Non-Toxic | –
6 | OC[C@H]1O[C@@H](OCCCCc2cn(CCCCc3ccc(O)c(/C=N/O)n3)nn2)[C@H](O)[C@@H]1O | Non-Toxic | –
7 | OC[C@H]1O[C@@H](OCCCCc2ccc(O)c(/C=N/O)n2)[C@H](O)[C@@H](O)[C@@H]1O | Non-Toxic | –
8 | Cn1cc(CCCCO[C@H]2O[C@H](CO)[C@@H](O)[C@H](O)[C@H]2O)nn1 | Non-Toxic | –
9 | OC[C@H]1O[C@@H](OCCCc2ccc(O)c(/C=N/O)n2)[C@H](O)[C@@H](O)[C@@H]1O | Non-Toxic | remaining at 4 h, 50 µM [4]: 97.8%; remaining at 52 h, 50 µM [5]: 91.4%
10 | Cn1cc(CCCCOC[C@H]2O[C@@H](O)[C@H](O)[C@@H](O)[C@@H]2O)nn1 | Non-Toxic | –
11 | Cn1cc(CCCCO[C@@H]2O[C@H](CO)[C@@H](O)[C@H](O)[C@H]2O)nn1 | Non-Toxic | –
12 | C#CCCO[C@@H]1O[C@H](CO)[C@@H](O)[C@H](O)[C@H]1O | Non-Toxic | –
13 | OC[C@H]1O[C@@H](OCCCCc2cn(CCCCc3ccc(O)c(/C=N/O)n3)nn2)[C@H](O)[C@@H](O)[C@@H]1O | Non-Toxic | –
14 | Cn1cc(CCCCO[C@@H]2O[C@H](CO)[C@@H](O)[C@H]2O)nn1 | Non-Toxic | –
15 | Cn1cc(CCO[C@@H]2O[C@H](CO)[C@@H](O)[C@H](O)[C@H]2O)nn1 | Non-Toxic | –
16 | C#CCCCCO[C@H]1O[C@H](CO)[C@@H](O)[C@H]1O | Non-Toxic | –
